For this assay, the target named is T1, hOX2R (Homo sapiens, UniProt O43614).
T1 construct: expressed in transfected cells; host or cells: CHO cells (G418 selection)
T1 sequence (O43614 1-444): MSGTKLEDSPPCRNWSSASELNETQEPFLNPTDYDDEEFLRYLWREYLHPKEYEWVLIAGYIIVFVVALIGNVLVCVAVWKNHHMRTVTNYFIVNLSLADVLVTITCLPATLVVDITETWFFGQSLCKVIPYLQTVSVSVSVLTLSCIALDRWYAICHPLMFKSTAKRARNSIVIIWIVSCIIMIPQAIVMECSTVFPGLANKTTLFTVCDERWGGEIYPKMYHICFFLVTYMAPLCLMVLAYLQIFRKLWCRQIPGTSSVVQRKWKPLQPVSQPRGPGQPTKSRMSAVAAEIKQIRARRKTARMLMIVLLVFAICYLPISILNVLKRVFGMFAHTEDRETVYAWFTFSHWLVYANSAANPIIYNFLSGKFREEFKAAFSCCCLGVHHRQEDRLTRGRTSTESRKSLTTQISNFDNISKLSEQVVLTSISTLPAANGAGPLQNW
Put plainly: hOX2R IPone assay (orexin receptor agonism). The assay is classed as cell-based. As to conditions: IPone readout; for hOX2R_Ipone max %act: maximal activation; for EC50: orexin receptor agonist, read-out: hOX2R_IPone EC50.

Regarding `CCN1C(=O)NCCCC(C)(C)COc2nc(cn3ccnc23)-c2cccc(c2)[C@H]1C` [Example 13, (12R)-13-ethyl-12,19,19-tri-methyl-12,13,15, 16,17,18,19,20-octahydro-14H-6,22-(azeno)-11,7-(metheno) imidazo[2,1-c][1,4,13,15]oxa-triazacycloicosin-14-one], the hOX2R_Ipone max %act is 98.2% and the EC50 was found to be 634 nM.
The corresponding values for `CCN1C(=O)NC(CCC(F)F)CCCCCOc2nc(cn3ccnc23)-c2cc(ncc2OC)[C@H]1C(F)(F)F` (stereo partly drawn) [Example 208, (3S,E)-7-(3,3-difluoropropyl)-4-ethyl-25-methoxy-3-(trifluoromethyl)-13-oxa-4,6-diaza-1(6,8)-imidazo[1,2-a]pyrazina-2(4,2)-pyridinacyclotridecaphan-5-one] are 101.8% and 0.29 nM.
As to `CCN1C(=O)N[C@@H](CCC(F)(F)F)CCCCCOc2nc(cn3ccnc23)-c2ccnc(c2)[C@@H]1C` [Example 30, (12S,16R)-13-ethyl-12-methyl-16-(3,3,3-trifluoropropyl)-12,13,16,17,18, 19,20,21-octa-hydro-6,23-(azeno)-11,7-(metheno)imidazo [2,1-c][1,4,10, 13,15]oxatetra-azacyclohenicosin-14(15H)-one], the hOX2R_Ipone max %act turned out to be 98.5% and the EC50 worked out at 51.1 nM.
Turning to `CCN1C(=O)N[C@@H](CCC(C)(F)F)CCCCCOc2nc(cn3ccnc23)-c2cc(ncc2OC)[C@H]1C` [Example 83, (12R,16R)-16-(3,3-difluorobutyl)-13-ethyl-8-methoxy-12-methyl-12,13,16,17, 18,19,20,21-octa-hydro-6,23-(azeno)-11,7-(metheno) imidazo[2,1-c][1,4,9,13,15]oxatetraazacy-clohenicosin-14(15H)-one], the hOX2R_Ipone max %act came to 100.7% and the EC50 is 1 nM.
`CCN1C(=O)N[C@@H](CF)CCCCCOc2nc(cn3ccnc23)-c2cc(ncc2OC)[C@H]1C` [Example 126, (3R,7R,E)-4-ethyl-7-(fluoromethyl)-25-methoxy-3-methyl-13-oxa-4,6-diaza-1(6,8)-imidazo[1,2-a]pyrazina-2(4,2)-pyridinacyclotridecaphan-5-one]: the hOX2R_Ipone max %act was 96.84% and the 50% effective concentration (EC50) amounted to 9.38 nM.
Turning to `CCN1C(=O)N[C@@H](CCC(F)(F)F)CCCCCOc2nc(cn3ccnc23)C2=NC=C(S2)C1C` (single isomer, unassigned) [Example 94A], the hOX2R_Ipone max %act amounted to 97.9% and the EC50 was 167 nM.
`CCN1C(=O)NC(CC2CCCC2)CCCCCOc2nc(cn3ccnc23)-c2cc(ncc2OC)[C@H]1C` (single isomer, unassigned) [Example 65A]: the hOX2R_Ipone max %act came to 102.4% and the EC50 was 13.5 nM.
For `CCN1C(=O)N[C@@H](CCC(C)(F)F)CCCCCOc2nc(cn3ncnc23)-c2cc(cnc2C)[C@H]1C` [Example 146, (3R,7R,E)-7-(3,3-difluorobutyl)-4-ethyl-22,3-dimethyl-13-oxa-4,6-diaza-1(6,8)-[1,2,4]triazolo[1,5-a]pyrazina-2(3,5)-pyridinacyclotridecaphan-5-one], the hOX2R_Ipone max %act is given as 100.8% and the EC50 was found to be 14.7 nM.
Consider `CCN1C(=O)NC(CCOC(F)(F)F)CCCCCOc2nc(cn3ccnc23)-c2cc(ncc2OC)[C@H]1C` (single isomer, unassigned) [Example 73A], for which the hOX2R_Ipone max %act was found to be 100.6% and the EC50 came out at 8.6 nM.
As to `CCN1C(=O)N[C@@H](CCC(F)(F)F)CCCCCOc2cc(cc3ccnn23)-n2nc(cc2C2CC2)C1C` (mixture of isomers) [Example 210, (16E,22E,7R)-25-cyclopropyl-4-ethyl-3-methyl-7-(3,3,3-trifluoropropyl)-21H-13-oxa-4,6-diaza-1(5,7)-pyrazolo[1,5-a]pyridina-2(1,3)-pyrazolacyclotridecaphan-5-one], the hOX2R_Ipone max %act turned out to be 102.8% and the EC50 amounted to 5.24 nM.
On to `CCC(CC)CC1CCCCCOc2nc(cn3ccnc23)-c2cc(ncc2OC)[C@@H](C)N(CC)C(=O)N1` (single isomer, unassigned) [Example 64B], for which the hOX2R_Ipone max %act is listed as 99.8% and the concentration giving a half-maximal response (EC50) is 1.6 nM.
Taken in the same sequence, the figures for `CCN1C(=O)NCCCCOc2nc(cn3ccnc23)-c2cc(ncc2OC)[C@H]1C` [Example 178, (R,E)-4-ethyl-25-methoxy-3-methyl-11-oxa-4,6-diaza-1(6,8)-imidazo[1,2-a]pyrazina-2(4,2)-pyridinacycloun-decaphan-5-one] were 88% and 325 nM.
On to `CCN1C(=O)NCCc2nc(no2)COc2nc(cn3ccnc23)-c2cccc(c2)[C@H]1C` [Example 24, (R,27E,54Z)-10-ethyl-11-methyl-3-oxa-8,10-diaza-5(3,5)-oxadiazola-2(6,8)-imidazo[1,2-a]pyrazina-1(1,3)-benzenacyclo-undecaphan-9-one], for which the hOX2R_Ipone max %act is 61.5% and the EC50 amounted to 814 nM.
With `CCN1C(=O)N[C@@H](CCC(F)(F)F)CCOCCOc2nc(cn3ncnc23)-c2c(OC)cnc(c2F)C1C` (stereo partly drawn) [Example 179, (7S,E)-4-ethyl-23-fluoro-25-methoxy-3-methyl-7-(3,3,3-trifluoropropyl)-10,13-dioxa-4,6-diaza-1(6,8)-[1,2, 4]triazolo[1,5-a]pyrazina-2(4,2)-pyridinacyclotridecaphan-5-one], the hOX2R_Ipone max %act amounted to 100.8% and the EC50 worked out at 8.24 nM.
Take `CCN1C(=O)N[C@@H](CCC(F)(F)F)CCCCCOc2cc(nn3ccnc23)-c2cc(ncc2OC)[C@H]1C` [Example 149, (3R,7R,E)-4-ethyl-25-methoxy-3-methyl-7-(3,3,3-trifluoropropyl)-13-oxa-4,6-diaza-1(6,8)-imidazo[1,2-b]pyridazina-2(4,2)-pyridinacyclotridecaphan-5-one]: the hOX2R_Ipone max %act is 109.6% and the EC50 was 1.11 nM.
For `CCN1C(=O)N[C@@H](CCC(F)(F)F)CCCCCOc2cc(nn3ccnc23)-c2cc(cnc2OC)[C@H]1C` [Example 89, (12R,16R)-13-ethyl-8-methoxy-12-methyl-16-(3,3,3-trifluoropropyl)-12,13,16,17,18,19,20, 21-octahydro-6,23:11,7-di(metheno) imidazo[2,1-c][1,4,5,9,13,15]oxapentaaza-cyclohenicosin-14(15H)-one], the hOX2R_Ipone max %act is 99.2% and the EC50 amounted to 6.4 nM.
On to `CCN1C(=O)NC(CCOC)CCCCCOc2nc(cn3ccnc23)-c2cc(ncc2OC)[C@H]1C` (single isomer, unassigned) [Example 56A], for which the hOX2R_Ipone max %act came out at 101.7% and the EC50 stood at 32 nM.
`CCN1C(=O)NC(CC#N)CCCCCOc2nc(cn3ccnc23)-c2cc(ncc2OC)[C@H]1C` (stereo partly drawn) [Example 194, 2-((3R,E)-4-ethyl-25-methoxy-3-methyl-5-oxo-13-oxa-4,6-diaza-1(6,8)-imidazo[1,2-a]pyrazina-2(4,2)-pyridinacyclotridecaphane-7-yl)acetonitrile]: the hOX2R_Ipone max %act was 102.2% and the EC50 is 1.2 nM.
In the case of `CCN1C(=O)N[C@@H](CCC(F)(F)F)CCCCCOc2nc(nc3ccnn23)-c2cc(ncc2OC)[C@H]1C` [Example 98, (11R,15R)-12-ethyl-7-methoxy-11-methyl-15-(3,3,3-trifluoropropyl)-11,12,15,16,17,18,19, 20-octahydro-5,22-(azeno)-10,6-(metheno)pyrazolo[1,5-c][1,3,5,10,13,15] oxapentaazacycloheni-cosin-13(14H)-one], the hOX2R_Ipone max %act stood at 101.2% and the concentration for a half-maximal effect (EC50) came out at 8.6 nM.
As for `CCN1C(=O)NC(CC2CC(F)(F)C2)CCCCCOc2nc(cn3ccnc23)-c2cc(ncc2OC)[C@H]1C` (single isomer, unassigned) [Example 69B], the hOX2R_Ipone max %act came to 101.1% and the EC50 is 0.6 nM.
`CCN1C(=O)N[C@@H](CCC(F)(F)F)CCCCCOc2nc(cn3ccnc23)-c2cc(nc3ccoc23)C1C` (single isomer, unassigned) [Example 74B]: the hOX2R_Ipone max %act turned out to be 101.2% and the EC50 came to 0.9 nM.
Take `CCN1C(=O)NC(C2CCOCC2)CCCCCOc2nc(cn3ccnc23)-c2cc(ncc2OC)[C@H]1C` (single isomer, unassigned) [Example 68B]: the hOX2R_Ipone max %act was 101.5% and the EC50 is 1.5 nM.
Regarding `CCN1C(=O)N[C@@H](CCC(F)(F)F)CCCCOc2nc(cn3ccnc23)-c2cccc(c2)[C@H]1C` [Example 32, (3R,7R,E)-4-ethyl-3-methyl-7-(3,3,3-trifluoropropyl)-12-oxa-4,6-diaza-1(6,8)-imidazo[1,2-a]pyrazina-2(1,3)-benzenacyclododecaphan-5-one], the hOX2R_Ipone max %act worked out at 101% and the EC50 stood at 2.8 nM.
With `CCN1C(=O)N[C@@H](CCC(F)(F)F)CCCCCOc2nc(cn3ccnc23)-c2nc(co2)C1C` (single isomer, unassigned) [Example 105B], the hOX2R_Ipone max %act turned out to be 100% and the EC50 came out at 61.6 nM.
Turning to `CCN1C(=O)NC2CN(CCCOc3nc(cn4ccnc34)-c3cccc(c3)[C@H]1C)CC2(F)F` (mixture of isomers) [Example 213, (3R,E)-4-ethyl-7^4,7^4-difluoro-3-methyl-11-oxa-4,6-diaza-1(6,8)-imidazo[1,2-a]pyrazina-7(3,1)-pyrrolidina-2(1,3)-benzenacycloundecaphan-5-one], the hOX2R_Ipone max %act worked out at 101.8% and the EC50 was determined as 6.44 nM.

For the origin of these results see patent publication US12686690B2, “Macrocyclic urea orexin receptor agonists” (Merck Sharp & Dohme LLC, priority 2020, dated 2026).
